Laboratory results published in publication PMC6644700 (ACS chemical biology, 2019).

Target: T1, Nicotinamide N-methyltransferase (NNMT) (Homo sapiens, UniProt P40261, C165A)
T1 sequence (P40261 1-264 C165A): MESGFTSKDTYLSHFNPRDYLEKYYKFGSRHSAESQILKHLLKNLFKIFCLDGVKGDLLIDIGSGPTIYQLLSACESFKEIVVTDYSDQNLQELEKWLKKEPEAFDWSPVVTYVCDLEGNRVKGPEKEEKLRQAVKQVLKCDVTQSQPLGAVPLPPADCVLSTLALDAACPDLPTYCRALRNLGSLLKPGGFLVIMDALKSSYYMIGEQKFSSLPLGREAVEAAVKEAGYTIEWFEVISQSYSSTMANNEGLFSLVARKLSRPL
Assay: suicide inactivation of purified mutant with SAM
Type: biochemical

## Clc1ccncc1 [compound 2, 4-chloropyridine]
  suicide inactivation of purified mutant with SAM: By contrast, the C165A mutant remained sensitive.

## NC(=O)c1cnccc1Cl [compound 3, 4-chloronicotinamide]
  suicide inactivation of purified mutant with SAM: By contrast, the C165A mutant remained sensitive.
